Results published in paper PMC10601206, “Adaptive laboratory evolution of Rhodococcus rhodochrous DSM6263 for chlorophenol degradation under hypersaline condition” (Microbial Cell Factories, 2023).

Tests used:
[1] = biological target: T1, PheA1A2 (PheA2A1, phenol monooxygenase) (Rhodococcus rhodochrous, UniProt A0ABY1MEQ0); experiment: HPLC of substrate depletion, product by LC-MS; format: cell-based; conditions: whole E. coli BL21(DE3) cells expressing PheA1A2, OD600 15, 100 mM PBS, 0.5 mM 4-chlorophenol; ortho hydroxylation
T1 construct: gene SAMN02745947_03917; both components co-expressed from pET28a in E. coli BL21(DE3), whole cells; with Phenol 2-monooxygenase, flavin reductase component
T1 sequence (A0ABY1MEQ0 1-537): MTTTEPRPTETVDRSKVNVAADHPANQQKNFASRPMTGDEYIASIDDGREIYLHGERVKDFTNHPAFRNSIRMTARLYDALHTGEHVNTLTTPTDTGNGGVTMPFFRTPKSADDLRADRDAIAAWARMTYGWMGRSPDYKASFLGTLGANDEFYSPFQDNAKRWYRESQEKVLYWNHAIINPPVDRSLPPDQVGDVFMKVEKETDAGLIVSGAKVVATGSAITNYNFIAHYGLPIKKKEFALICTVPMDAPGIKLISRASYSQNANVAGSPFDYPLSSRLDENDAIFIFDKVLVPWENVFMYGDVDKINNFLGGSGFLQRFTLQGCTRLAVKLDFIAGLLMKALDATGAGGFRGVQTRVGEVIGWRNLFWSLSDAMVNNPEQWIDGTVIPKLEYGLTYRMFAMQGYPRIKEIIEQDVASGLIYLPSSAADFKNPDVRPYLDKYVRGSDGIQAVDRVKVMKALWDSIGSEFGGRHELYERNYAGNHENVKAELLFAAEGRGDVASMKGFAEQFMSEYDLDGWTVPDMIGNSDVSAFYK

[2] = biological target: T1, PheA1A2 (PheA2A1, phenol monooxygenase); experiment: HPLC of substrate depletion; format: cell-based; conditions: whole E. coli BL21(DE3) cells expressing PheA1A2; ortho hydroxylation

Row | Compound | HPLC of substrate depletion, product by LC-MS [1] | HPLC of substrate depletion [2]
1 | Oc1ccc(Cl)cc1 [4-chlorophenol] | The ortho hydroxylation enzyme activity to phenol, 4-chlorophenol | 
2 | Oc1ccccc1 [phenol] |  | The ortho hydroxylation enzyme activity to phenol, 4-chlorophenol
